Data taken from ChEMBL document CHEMBL3351315, “Tanzawaic acid derivatives from a marine isolate of Penicillium sp. (SF-6013) with anti-inflammatory and PTP1B inhibitory activities” (Bioorg Med Chem Lett, 2014).
Active and inactive are the calls of the source. The rule behind the calls is not given here.

How the values were obtained:
RAW264.7 [1] = assay: Inhibition of LPS-induced iNOS protein expression in mouse RAW264.7 cells pre-treated for 1 hr before LPS stimulation for 18 hrs by Western blot method; type: functional, cell-based
[2] = biological target: T1, Tyrosine-protein phosphatase non-receptor type 1 (Homo sapiens, UniProt P18031); assay: Inhibition of human recombinant PTP1B assessed as reduction in pNPP substrate hydrolysis incubated for 30 mins
T1 sequence (P18031 whole entry): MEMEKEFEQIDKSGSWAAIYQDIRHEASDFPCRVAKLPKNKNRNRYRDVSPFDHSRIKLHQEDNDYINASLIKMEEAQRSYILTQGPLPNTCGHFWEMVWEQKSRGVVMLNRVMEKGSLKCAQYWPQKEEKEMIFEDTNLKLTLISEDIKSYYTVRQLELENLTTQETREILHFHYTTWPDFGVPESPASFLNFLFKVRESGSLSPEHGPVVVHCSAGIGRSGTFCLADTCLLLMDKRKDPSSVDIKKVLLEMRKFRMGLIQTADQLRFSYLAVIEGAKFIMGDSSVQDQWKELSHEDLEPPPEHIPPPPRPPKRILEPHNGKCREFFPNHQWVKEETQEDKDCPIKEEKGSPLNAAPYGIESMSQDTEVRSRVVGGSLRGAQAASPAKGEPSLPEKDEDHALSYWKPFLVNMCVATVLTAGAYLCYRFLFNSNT

BV-2 [3] = assay: Inhibition of LPS-induced PGE2 production in mouse BV2 cells pre-treated for 3 hrs before LPS stimulation for 24 hrs by ELISA; type: functional, cell-based
[4] = Effect on beta-actin protein expression in LPS-induced mouse BV2 cells pre-treated for 1 hr before LPS stimulation for 18 hrs by Western blot method; type: ADME, cell-based; details: bv-2, 18 h
RAW264.7 [5] = assay: Effect on beta-actin protein expression in LPS-induced mouse RAW264.7 cells pre-treated for 1 hr before LPS stimulation for 18 hrs by Western blot method; type: ADME, cell-based; details: raw264.7, 18 h
BV-2 [6] = assay: Inhibition of LPS-induced iNOS protein expression in mouse BV2 cells pre-treated for 1 hr before LPS stimulation for 18 hrs by Western blot method; type: functional, cell-based
BV-2 [7] = assay: Inhibition of LPS-induced COX2 protein expression in mouse BV2 cells pre-treated for 1 hr before LPS stimulation for 18 hrs by Western blot method; type: functional, cell-based
BV-2 [8] = assay: Inhibition of LPS-induced nitric oxide production in mouse BV2 cells pre-treated for 3 hrs before LPS stimulation by ELISA based Griess assay; type: functional, cell-based
RAW264.7 [9] = assay: Inhibition of LPS-induced nitric oxide production in mouse RAW264.7 cells pre-treated for 3 hrs before LPS stimulation by ELISA based Griess assay; type: functional, cell-based
RAW264.7 [10] = assay: Inhibition of LPS-induced COX2 protein expression in mouse RAW264.7 cells pre-treated for 1 hr before LPS stimulation for 18 hrs by Western blot method; type: functional, cell-based
RAW264.7 [11] = assay: Inhibition of LPS-induced PGE2 production in mouse RAW264.7 cells pre-treated for 3 hrs before LPS stimulation for 24 hrs by ELISA; type: functional, cell-based
BV-2 [12] = assay: Inhibition of LPS-induced IL-1beta production in mouse BV2 cells pre-treated for 3 hrs before LPS stimulation for 24 hrs by ELISA; type: functional, cell-based
[13] = biological target: T2, Tyrosine-protein phosphatase non-receptor type 1 (Homo sapiens) (UniProt P18031); assay: Inhibition of human recombinant PTP1B assessed as reduction in pNPP substrate hydrolysis at 30 uM incubated for 30 mins
T2 sequence (whole entry): T1 sequence (P18031 whole entry)

## Cc1ccc2c(c1/C=C/C=C/C(=O)O)[C@H](C)C[C@H](C)C2
RAW264.7 [1]
  inhibition: Dose-dependent effect
[2]
  IC50: 8.2 µM
BV-2 [3]
  IC50: 17.5 µM
[4]
  Activity: Non-toxic
RAW264.7 [5]
  Activity: Non-toxic
BV-2 [6]
  inhibition: Dose-dependent effect
BV-2 [7]
  inhibition: Dose-dependent effect
BV-2 [8]
  IC50: 7.1 µM
RAW264.7 [9]
  IC50: 27 µM
RAW264.7 [10]
  inhibition: Dose-dependent effect
RAW264.7 [11]
  IC50: 15.7 µM
BV-2 [12]
  IC50: 21.9 µM

## C[C@H]1C[C@@H](C)[C@@H]2[C@@H](/C=C/C=C/C(=O)O)[C@@H](C)C=C[C@H]2C1
[2]
  IC50: 8.2 µM
BV-2 [8]
  IC50: 42.5 µM

## Cc1ccc2c(c1/C=C/C=C/C(=O)O)[C@H](C)C[C@@](C)(O)C2
[13]
  inhibition: 24.1%

## C[C@@H]1C[C@@](C)(O)C[C@@H]2C=C[C@H](C)[C@H](/C=C/C=C/C(=O)O)[C@@H]12
[13]
  inhibition: inactive

## Cc1ccc2c(c1/C=C\C=C\C(=O)O)[C@H](C)C[C@@](C)(O)C2
[13]
  inhibition: 27.3%
BV-2 [8]
  IC50: 37.8 µM
